According to article PMC11587516 (ACS Chemical Neuroscience, 2024):
Positions count from the first letter of the chain named.

Legend:
Type in all cases: cell-based
hBGT1 = target: T1, hBGT1 (Homo sapiens, UniProt P48065); experiment: [3H]GABA uptake assay, CHO cells stably expressing hBGT1
T1 construct: expressed in transfected cells
T1 sequence (P48065 1-614): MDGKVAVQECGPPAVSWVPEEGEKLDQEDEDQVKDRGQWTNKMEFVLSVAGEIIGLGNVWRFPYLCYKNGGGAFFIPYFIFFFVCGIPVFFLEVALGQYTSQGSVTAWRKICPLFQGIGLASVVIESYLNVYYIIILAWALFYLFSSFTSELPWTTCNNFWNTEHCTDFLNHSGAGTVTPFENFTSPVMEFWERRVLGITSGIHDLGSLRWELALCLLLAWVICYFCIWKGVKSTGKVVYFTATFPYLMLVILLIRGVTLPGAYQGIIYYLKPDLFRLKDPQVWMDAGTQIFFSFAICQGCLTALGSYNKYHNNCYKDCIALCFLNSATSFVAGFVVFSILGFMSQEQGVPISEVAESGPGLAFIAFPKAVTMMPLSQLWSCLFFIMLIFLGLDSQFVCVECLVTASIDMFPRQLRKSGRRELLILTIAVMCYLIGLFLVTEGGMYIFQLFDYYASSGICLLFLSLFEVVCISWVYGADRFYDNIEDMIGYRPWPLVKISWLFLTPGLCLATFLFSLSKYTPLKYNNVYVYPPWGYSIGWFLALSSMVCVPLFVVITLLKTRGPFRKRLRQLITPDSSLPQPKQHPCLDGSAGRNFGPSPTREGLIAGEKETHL
Experimental: All selected compounds were tested for their ability to inhibit human BGT1 (hBGT1) function.
(§1) The CHO cells were placed in 96-well plates (approximately 50,000 cells/well) for about 24 h before the experiment. […] After incubation, cells were washed 3 times with 100 μL/well ice-cold assay buffer, 150 μL/well MicroScint20 (PerkinElmer) was subsequently added before the plate was shaken for at least 1 h. The radioactivity of each well of the plate was measured on a TopCount NXT scintillation counter. […] Data presented are the pooled data of at least three independent experiments with three technical replicates if not stated otherwise in figure legends. Concentration–response curves were fitted by nonlinear regression to the sigmoidal concentration–response model with GraphPad Prism v 9.0.

hGAT3 = target: T2, hGAT3 (Homo sapiens, UniProt P48066); experiment: [3H]GABA uptake assay, CHO cells stably expressing hGAT3
T2 construct: expressed in transfected cells
T2 sequence (P48066 1-632): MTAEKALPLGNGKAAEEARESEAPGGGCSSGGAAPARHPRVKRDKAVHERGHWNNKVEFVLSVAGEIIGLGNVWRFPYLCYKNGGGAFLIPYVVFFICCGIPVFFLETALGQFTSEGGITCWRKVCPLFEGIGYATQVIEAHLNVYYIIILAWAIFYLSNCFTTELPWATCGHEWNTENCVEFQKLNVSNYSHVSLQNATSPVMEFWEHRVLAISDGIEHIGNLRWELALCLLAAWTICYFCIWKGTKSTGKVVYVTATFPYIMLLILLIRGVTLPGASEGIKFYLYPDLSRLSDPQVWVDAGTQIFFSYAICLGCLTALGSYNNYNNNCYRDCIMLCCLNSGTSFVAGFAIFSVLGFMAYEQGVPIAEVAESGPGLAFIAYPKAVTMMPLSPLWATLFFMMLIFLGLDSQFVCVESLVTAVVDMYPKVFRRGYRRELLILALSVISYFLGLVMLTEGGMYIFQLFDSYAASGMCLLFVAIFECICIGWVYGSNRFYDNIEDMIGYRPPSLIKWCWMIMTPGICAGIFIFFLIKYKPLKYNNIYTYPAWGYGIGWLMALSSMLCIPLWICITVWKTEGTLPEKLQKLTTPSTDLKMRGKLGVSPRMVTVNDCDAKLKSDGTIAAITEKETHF

hBGT1 E52A = target: T3, hBGT1 E52A (Homo sapiens, UniProt P48065, E52A); experiment: [3H]GABA uptake assay, hBGT1 mutant E52A in tsA201 cells
T3 construct: host or cells: tsA201 cells (transformed HEK293), transient expression
T3 sequence (P48065 1-614 E52A): T1 sequence (P48065 1-614) with E52A
Experimental: To validate the molecular modeling, particularly the crucial interactions with the Glu52 and Gln299 residues, the activity of compound 9 was tested on the following hBGT1 mutants: E52A, E52Y, Q299L, and the double mutant E52A+Q299L (Figure 5 and Table 1).[14]
as §1
The tsA201 cell line (a transformed HEK293 cell line) has been described previously and was cultured accordingly.[20] The tsA201 cells used for transient expression of hBGT1 mutants were transfected with DNA constructs (8 μg per 10 cm plate) using 40 μL of PolyFect transfection reagent according to the manufacturer’s protocol (Qiagen). […]

With `NC12CC(C(=O)O)(C1)C2` [Compound 9] the IC50 (hBGT1) was 13.9 µM, the inhibition at 100 µM (hBGT1; CHO, read-out: inhibition of [3H]GABA uptake) was 81% and the “preference for hBGT1 over hGAT3” value (hBGT1; ratio of IC50 values) was “over 4 fold”. For the same compound, the IC50 (hGAT3) was 58.3 µM, the inhibition at 100 µM (hGAT3; CHO, read-out: inhibition of GABA uptake) was ~73% and the IC50 (hBGT1 E52A) was 64.2 µM. For the same compound, the “decrease in activity compared with wild type hBGT1” value (hBGT1 E52A; E52A vs wt) was ~2 fold.
